Results as given in ChEMBL document CHEMBL5661967, “Antitumor activity of HKI-272, an orally active, irreversible inhibitor of the HER-2 tyrosine kinase” (Cancer Res, 2004).
The source made the active and inactive calls. No cut-off for these calls is given here.

Key:
[1] = tested on: SK-OV-3; assay: Antitumor activity against human SK-OV-3 cells xenografted in athymic nude mouse assessed as tumor growth inhibition at 5 mg/kg, po administered daily for 20 days via gavage and measured on day 21 relative to control; type: functional; conditions: SK-OV-3, 504 h, time 21 day, read-out: TGI
[2] = biological target: Mitogen-activated protein kinase kinase kinase 8 (Homo sapiens, UniProt P41279); assay: Inhibition of recombinant Tpl-2 (unknown origin) using peptide as substrate
[3] = tested on: NIH3T3; assay: Antitumor activity against mouse 3T3 cells transfected with HER-2 oncogene implanted in po dosed athymic nude mouse assessed as tumor growth inhibition administered daily for 10 days via gavage and measured on day 21; type: functional, organism-based; conditions: dose 20-80 mg/kg, time 21.0 day
[4] = biological target: Cyclin-dependent kinase 1/cyclin B1 (Homo sapiens, UniProt P06493); assay: Inhibition of recombinant CDK1/cyclin B1 (unknown origin) using protein as substrate; type: protein-complex assay
[5] = biological target: RAC-alpha serine/threonine-protein kinase (Homo sapiens, UniProt P31749); assay: Inhibition of recombinant AKT (unknown origin) using peptide as substrate
[6] = tested on: BT-474; assay: Antitumor activity against human BT-474 cells xenografted in athymic nude mouse assessed as tumor growth inhibition at 10 mg/kg, po administered daily for 20 days via gavage and measured on day 28 relative to control; type: functional; conditions: BT-474, 672 h, time 28 day, read-out: TGI
[7] = Toxicity in human BT-474 cells xenografted athymic nude mouse assessed as body weight loss at 10 to 40 mg/kg, po administered daily via gavage for 20 days; type: organism-based; conditions: in vivo, 480 h, dose 10-40 mg/kg, time 20 day
[8] = tested on: BT-474; assay: Antitumor activity against human BT-474 cells xenografted in athymic nude mouse assessed as tumor growth inhibition at 5 mg/kg, po administered daily for 20 days via gavage and measured on day 21 relative to control; type: functional; conditions: BT-474, 504 h, time 21 day, read-out: TGI
[9] = tested on: BT-474; assay: Cell cycle arrest in human BT-474 cells assessed as accumulation of cells at S phase at 0.2 nM measured after 12 to 16 hrs by BrdUrd uptake assay (reference value: 26%); type: functional; conditions: time 12-16 hrs
[10] = tested on: BT-474; assay: Cell cycle arrest in human BT-474 cells assessed as accumulation of cells at S phase at 1 nM measured after 12 to 16 hrs by BrdUrd uptake assay (reference value: 26%); type: functional; conditions: time 12-16 hrs
[11] = biological target: Inhibitor of nuclear factor kappa-B kinase subunit beta (Homo sapiens, UniProt O14920); assay: Inhibition of recombinant IKK-2 (unknown origin) using peptide as substrate
[12] = tested on: BT-474; assay: Cell cycle arrest in human BT-474 cells assessed as accumulation of cells at G2/M phase at 2 nM measured after 12 to 16 hrs by propidium iodide staining based flow cytometry (reference value: 11%); type: functional; conditions: time 12-16 hrs
[13] = In vivo inhibition of HER2 autophosphorylation in human BT-474 cells xenografted athymic nude mouse at 40 mg/kg, po administered as single dose via gavage measured after 6 hrs by immunoblot analysis relative to control; type: functional
[14] = tested on: BT-474; assay: Antiproliferative activity against human BT-474 cells measured after 6 days by sulforhodamine B assay; type: functional, cell-based; conditions: BT-474, 144 h
[15] = tested on: BT-474; assay: Cell cycle arrest in human BT-474 cells assessed as down regulation of Rb expression at 1 to 10 nM incubated for 12 to 16 hrs by Western blot analysis; type: functional, cell-based; conditions: dose 1-10 nM, time 12-16 hrs
[16] = tested on: NIH3T3; assay: Antitumor activity against mouse 3T3 cells transfected with HER-2 oncogene implanted in athymic nude mouse assessed as tumor growth inhibition at 20 mg/kg, po administered daily for 10 days via gavage and measured on day 21 relative to control; type: functional; conditions: NIH3T3, 504 h, time 21 day, read-out: TGI
[17] = tested on: BT-474; assay: Cell cycle arrest in human BT-474 cells assessed as accumulation of cells at S phase at 0.2 nM measured after 12 to 16 hrs by propidium iodide staining based flow cytometry (reference value: 21%); type: functional; conditions: time 12-16 hrs
[18] = biological target: MAP kinase-activated protein kinase 2 (Homo sapiens, UniProt P49137); assay: Inhibition of recombinant MK2 (unknown origin) using peptide as substrate
[19] = tested on: BT-474; assay: Cell cycle arrest in human BT-474 cells assessed as accumulation of cells at G0-G1 phase at 0.2 nM measured after 12 to 16 hrs by propidium iodide staining based flow cytometry (reference value: 61%); type: functional; conditions: time 12-16 hrs
[20] = biological target: Epidermal growth factor receptor (Homo sapiens, UniProt P00533); assay: Inhibition of EGF-induced EGFR phosphorylation in human A-431 cells at 1 uM incubated for 3 hrs followed by compound washout and further incubated for 5 hrs by Western blot analysis relative to control; type: cell-based
[21] = tested on: BT-474; assay: Cell cycle arrest in human BT-474 cells assessed as increase in accumulation of cells at sub-G1 phase at >2 nM measured after 12 to 16 hrs by propidium iodide staining based flow cytometry; type: functional; conditions: time 12-16 hrs
[22] = tested on: BT-474; assay: Cell cycle arrest in human BT-474 cells assessed as accumulation of cells at G2/M phase at 0.2 nM measured after 12 to 16 hrs by propidium iodide staining based flow cytometry (reference value: 11%); type: functional; conditions: time 12-16 hrs
[23] = tested on: BT-474; assay: Cell cycle arrest in human BT-474 cells assessed as accumulation of cells at Sub-G1 phase at 0.2 nM measured after 12 to 16 hrs by propidium iodide staining based flow cytometry (reference value: 8%); type: functional; conditions: time 12-16 hrs
[24] = tested on: BT-474; assay: Cell cycle arrest in human BT-474 cells assessed as reduction in accumulation of cells at S phase measured after 12 to 16 hrs by BrdUrd uptake assay; type: functional, cell-based
[25] = biological target: Vascular endothelial growth factor receptor 2 (Homo sapiens, UniProt P35968); assay: Inhibition of recombinant KDR (unknown origin) using poly[Glu:Tyr] (4:1) as substrate
[26] = tested on: BT-474; assay: Cell cycle arrest in human BT-474 cells assessed as accumulation of cells at Sub-G1 phase at 2 nM measured after 12 to 16 hrs by propidium iodide staining based flow cytometry (reference value: 8%); type: functional; conditions: time 12-16 hrs
[27] = tested on: SK-OV-3; assay: Antitumor activity against human SK-OV-3 cells xenografted in po dosed athymic nude mouse assessed as tumor growth inhibition administered daily for 20 days via gavage and measured on day 21; type: functional, organism-based; conditions: dose 10-60 mg/kg, time 21.0 day
[28] = tested on: BT-474; assay: Cell cycle arrest in human BT-474 cells assessed as accumulation of cells at G0-G1 phase at 0.4 nM measured after 12 to 16 hrs by propidium iodide staining based flow cytometry (reference value: 61%); type: functional; conditions: time 12-16 hrs
[29] = tested on: BT-474; assay: Cell cycle arrest in human BT-474 cells assessed as accumulation of cells at G0-G1 phase at 1 nM measured after 12 to 16 hrs by propidium iodide staining based flow cytometry (reference value: 61%); type: functional; conditions: time 12-16 hrs
[30] = tested on: MDA-MB-361; assay: Antiproliferative activity against human MDA-MB-361 cells measured after 2 days by sulforhodamine B assay; type: functional, cell-based; conditions: MDA-MB-361, 48 h
[31] = biological target: Retinoblastoma-associated protein (Homo sapiens) (UniProt P06400); assay: Inhibition of Rb phosphorylation in human BT-474 cells at 1 to 10 nM incubated for 12 to 16 hrs by Western blot analysis; type: cell-based; conditions: dose 1-10 nM, time 12-16 hrs
[32] = biological target: Hepatocyte growth factor receptor (Homo sapiens, UniProt P08581); assay: Inhibition of recombinant c-Met autophosphorylation (unknown origin)
[33] = Terminal half life in nude mouse at 20 mg/kg, po administered as single dose; type: ADME, organism-based; conditions: in vivo, read-out: beta t1/2 (converted)

Chain of Cyclin-dependent kinase 1/cyclin B1 (P06493 whole entry): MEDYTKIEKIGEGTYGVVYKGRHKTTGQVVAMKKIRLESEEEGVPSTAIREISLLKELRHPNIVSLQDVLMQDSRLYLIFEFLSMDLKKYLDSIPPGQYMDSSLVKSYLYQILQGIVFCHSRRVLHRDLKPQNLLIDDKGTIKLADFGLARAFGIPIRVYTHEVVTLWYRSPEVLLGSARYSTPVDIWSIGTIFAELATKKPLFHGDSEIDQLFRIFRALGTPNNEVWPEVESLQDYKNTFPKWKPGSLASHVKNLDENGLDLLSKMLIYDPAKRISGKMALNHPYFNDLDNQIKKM
Chain of Cyclin-dependent kinase 1/cyclin B1 (P14635 whole entry, further chain): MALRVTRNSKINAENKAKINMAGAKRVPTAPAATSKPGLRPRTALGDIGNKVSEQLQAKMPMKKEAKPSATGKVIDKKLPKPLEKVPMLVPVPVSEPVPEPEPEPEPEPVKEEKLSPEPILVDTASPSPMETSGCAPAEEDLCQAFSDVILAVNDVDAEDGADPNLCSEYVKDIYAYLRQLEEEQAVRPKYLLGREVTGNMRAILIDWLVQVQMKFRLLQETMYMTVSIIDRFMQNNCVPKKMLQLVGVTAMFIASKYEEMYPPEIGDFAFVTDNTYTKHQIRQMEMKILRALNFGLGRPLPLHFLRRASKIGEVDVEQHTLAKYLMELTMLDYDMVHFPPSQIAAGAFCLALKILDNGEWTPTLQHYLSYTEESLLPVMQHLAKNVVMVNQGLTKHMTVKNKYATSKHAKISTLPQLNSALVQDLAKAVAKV
Chain of Mitogen-activated protein kinase kinase kinase 8 (P41279 whole entry): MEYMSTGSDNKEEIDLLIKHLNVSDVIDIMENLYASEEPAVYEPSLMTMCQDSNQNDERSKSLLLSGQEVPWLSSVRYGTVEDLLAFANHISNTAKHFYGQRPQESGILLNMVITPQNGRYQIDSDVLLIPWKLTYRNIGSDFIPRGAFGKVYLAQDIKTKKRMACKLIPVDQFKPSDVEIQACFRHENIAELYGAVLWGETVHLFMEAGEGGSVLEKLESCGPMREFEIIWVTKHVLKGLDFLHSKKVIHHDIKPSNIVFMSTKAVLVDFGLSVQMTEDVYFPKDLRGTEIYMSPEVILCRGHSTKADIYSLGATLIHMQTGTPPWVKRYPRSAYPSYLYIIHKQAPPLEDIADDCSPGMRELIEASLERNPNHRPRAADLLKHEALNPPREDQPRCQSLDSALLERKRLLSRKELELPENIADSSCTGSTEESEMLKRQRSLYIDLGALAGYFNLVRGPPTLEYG
Chain of Vascular endothelial growth factor receptor 2 (P35968 whole entry): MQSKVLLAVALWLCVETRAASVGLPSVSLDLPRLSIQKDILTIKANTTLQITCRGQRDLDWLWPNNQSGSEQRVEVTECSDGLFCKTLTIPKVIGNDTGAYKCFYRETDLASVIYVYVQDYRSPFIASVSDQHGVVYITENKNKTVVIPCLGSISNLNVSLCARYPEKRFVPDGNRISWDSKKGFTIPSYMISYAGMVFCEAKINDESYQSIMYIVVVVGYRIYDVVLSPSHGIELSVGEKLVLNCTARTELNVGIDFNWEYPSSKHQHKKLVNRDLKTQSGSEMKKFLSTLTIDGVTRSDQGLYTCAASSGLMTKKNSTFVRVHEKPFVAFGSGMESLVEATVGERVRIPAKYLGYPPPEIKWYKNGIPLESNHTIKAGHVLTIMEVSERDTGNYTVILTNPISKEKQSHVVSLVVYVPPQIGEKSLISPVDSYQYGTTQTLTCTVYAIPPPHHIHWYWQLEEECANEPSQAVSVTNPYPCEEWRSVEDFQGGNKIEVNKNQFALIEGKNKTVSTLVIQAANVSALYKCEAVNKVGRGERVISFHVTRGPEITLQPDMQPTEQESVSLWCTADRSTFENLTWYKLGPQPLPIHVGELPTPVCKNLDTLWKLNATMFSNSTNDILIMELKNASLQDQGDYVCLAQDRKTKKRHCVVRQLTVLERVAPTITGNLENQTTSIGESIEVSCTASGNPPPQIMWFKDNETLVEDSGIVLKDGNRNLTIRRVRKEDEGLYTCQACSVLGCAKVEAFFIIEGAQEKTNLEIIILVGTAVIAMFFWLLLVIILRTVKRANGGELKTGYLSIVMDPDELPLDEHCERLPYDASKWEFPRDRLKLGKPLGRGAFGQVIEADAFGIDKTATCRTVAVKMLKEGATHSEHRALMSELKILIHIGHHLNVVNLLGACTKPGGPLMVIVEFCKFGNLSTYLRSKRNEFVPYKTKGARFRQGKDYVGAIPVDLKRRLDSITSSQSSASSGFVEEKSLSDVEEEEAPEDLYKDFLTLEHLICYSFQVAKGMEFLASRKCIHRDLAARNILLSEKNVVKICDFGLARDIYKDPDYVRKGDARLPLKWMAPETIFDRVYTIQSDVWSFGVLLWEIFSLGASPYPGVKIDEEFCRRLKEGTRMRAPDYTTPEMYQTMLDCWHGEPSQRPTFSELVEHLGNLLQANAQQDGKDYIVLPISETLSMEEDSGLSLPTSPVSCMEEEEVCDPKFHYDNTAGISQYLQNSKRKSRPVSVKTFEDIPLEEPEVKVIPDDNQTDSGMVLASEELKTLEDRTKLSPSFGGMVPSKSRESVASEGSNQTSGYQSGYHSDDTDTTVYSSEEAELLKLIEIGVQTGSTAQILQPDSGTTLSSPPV
Chain of RAC-alpha serine/threonine-protein kinase (P31749 whole entry): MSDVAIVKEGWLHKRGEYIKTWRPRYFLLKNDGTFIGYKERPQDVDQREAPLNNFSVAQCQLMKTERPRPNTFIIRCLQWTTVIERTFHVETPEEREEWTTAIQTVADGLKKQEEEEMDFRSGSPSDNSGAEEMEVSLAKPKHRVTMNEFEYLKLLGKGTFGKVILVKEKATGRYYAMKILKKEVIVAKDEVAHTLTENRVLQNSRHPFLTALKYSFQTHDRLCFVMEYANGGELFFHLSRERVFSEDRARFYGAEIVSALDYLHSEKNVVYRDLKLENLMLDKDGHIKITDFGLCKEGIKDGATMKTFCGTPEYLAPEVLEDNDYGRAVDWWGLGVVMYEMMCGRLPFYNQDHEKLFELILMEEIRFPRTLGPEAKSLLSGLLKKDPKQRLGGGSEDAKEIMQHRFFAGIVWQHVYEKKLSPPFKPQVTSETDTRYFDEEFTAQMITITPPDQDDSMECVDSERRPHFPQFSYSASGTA
Chain of Inhibitor of nuclear factor kappa-B kinase subunit beta (O14920 whole entry): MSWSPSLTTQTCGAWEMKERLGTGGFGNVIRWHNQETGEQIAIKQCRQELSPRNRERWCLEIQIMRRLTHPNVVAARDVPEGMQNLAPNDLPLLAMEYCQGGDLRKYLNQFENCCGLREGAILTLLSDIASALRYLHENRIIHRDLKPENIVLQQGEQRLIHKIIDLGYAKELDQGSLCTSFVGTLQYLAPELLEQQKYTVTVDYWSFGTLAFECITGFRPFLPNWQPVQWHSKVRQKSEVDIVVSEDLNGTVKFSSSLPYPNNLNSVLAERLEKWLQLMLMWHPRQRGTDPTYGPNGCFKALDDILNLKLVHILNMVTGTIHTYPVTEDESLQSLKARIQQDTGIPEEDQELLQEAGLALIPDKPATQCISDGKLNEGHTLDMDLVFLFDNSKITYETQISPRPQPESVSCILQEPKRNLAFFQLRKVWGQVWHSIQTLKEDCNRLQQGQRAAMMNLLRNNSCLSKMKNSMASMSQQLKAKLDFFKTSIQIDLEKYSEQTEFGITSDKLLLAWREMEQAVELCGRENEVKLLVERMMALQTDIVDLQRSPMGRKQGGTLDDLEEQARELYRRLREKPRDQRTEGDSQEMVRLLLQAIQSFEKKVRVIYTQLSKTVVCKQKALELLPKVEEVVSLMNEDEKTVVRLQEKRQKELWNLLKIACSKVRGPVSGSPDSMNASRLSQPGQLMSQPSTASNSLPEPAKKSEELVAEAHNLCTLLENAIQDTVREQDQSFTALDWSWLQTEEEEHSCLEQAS
Chain of Retinoblastoma-associated protein (Homo sapiens) (P06400 whole entry): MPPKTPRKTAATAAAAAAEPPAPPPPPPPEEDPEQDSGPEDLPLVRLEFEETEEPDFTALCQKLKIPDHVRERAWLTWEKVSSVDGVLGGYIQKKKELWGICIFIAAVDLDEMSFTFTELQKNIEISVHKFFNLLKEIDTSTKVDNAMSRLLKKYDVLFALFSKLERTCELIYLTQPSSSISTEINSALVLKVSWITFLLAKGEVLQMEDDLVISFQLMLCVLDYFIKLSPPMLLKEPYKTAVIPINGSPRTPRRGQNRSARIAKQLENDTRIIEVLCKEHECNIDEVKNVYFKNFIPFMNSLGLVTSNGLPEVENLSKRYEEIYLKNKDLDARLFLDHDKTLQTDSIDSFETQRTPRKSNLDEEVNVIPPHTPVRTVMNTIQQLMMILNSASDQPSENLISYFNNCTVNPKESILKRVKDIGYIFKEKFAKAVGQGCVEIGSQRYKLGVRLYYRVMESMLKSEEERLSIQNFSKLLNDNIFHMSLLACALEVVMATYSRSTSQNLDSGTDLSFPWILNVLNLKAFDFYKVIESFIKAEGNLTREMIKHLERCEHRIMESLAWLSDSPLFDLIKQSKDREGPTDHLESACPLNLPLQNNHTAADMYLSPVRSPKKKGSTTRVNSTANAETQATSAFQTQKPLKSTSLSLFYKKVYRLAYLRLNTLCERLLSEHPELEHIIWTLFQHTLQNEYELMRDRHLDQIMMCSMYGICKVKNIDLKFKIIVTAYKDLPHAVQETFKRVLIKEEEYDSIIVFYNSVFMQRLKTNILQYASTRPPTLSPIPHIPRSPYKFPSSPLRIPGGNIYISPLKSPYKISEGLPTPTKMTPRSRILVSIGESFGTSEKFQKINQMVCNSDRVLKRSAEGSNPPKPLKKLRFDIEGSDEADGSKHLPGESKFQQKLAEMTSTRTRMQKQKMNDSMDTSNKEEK

Q: Which results are given for `COc1cc2ncc(C#N)c(Nc3ccc(OCc4ccccn4)c(Cl)c3)c2cc1NC(=O)/C=C/CN(C)C`?
A: inhibition in vivo at 5 mg/kg [1]: 31%; IC50 [2]: > 18000 nM; TGI [3]: Dose-Dependent Effect; IC50 [4]: > 18000 nM; IC50 [5]: > 20000 nM; inhibition in vivo at 10 mg/kg [6]: 67%; Activity [7]: Non-Toxic; inhibition in vivo at 5 mg/kg [8]: 70%; Activity [9]: 18%; Activity [10]: 12%; IC50 [11]: > 9000 nM; Activity [12]: 11%; inhibition in vivo at 40 mg/kg [13]: 97%; IC50 [14]: 2 nM; Activity [15]: Active; inhibition in vivo at 20 mg/kg [16]: 53%; Activity [17]: 16%; IC50 [18]: > 45000 nM; Activity [19]: 63%; inhibition [20]: 105%; Activity [21]: Active; Activity [22]: 13%; Activity [23]: 9%; IC50 [24]: 2 nM; IC50 [25]: 800 nM; Activity [26]: 11%; TGI [27]: Dose-Dependent Effect; Activity [28]: 65%; Activity [29]: 69%; IC50 [30]: 190 nM; inhibition [31]: Active; IC50 [32]: > 35000 nM; half-life [33]: ~4 h
